Earlier results on one molecule are cited in publication PMC12371494, “Discovery of YTHDF2 Ligands by Fragment-Based Design” (ACS Bio & Med Chem Au, 2025).

The series addresses T1, GST-YTHDF2 (Homo sapiens, UniProt Q9Y5A9).
T1 construct: made in house
T1 sequence (Q9Y5A9 1-579): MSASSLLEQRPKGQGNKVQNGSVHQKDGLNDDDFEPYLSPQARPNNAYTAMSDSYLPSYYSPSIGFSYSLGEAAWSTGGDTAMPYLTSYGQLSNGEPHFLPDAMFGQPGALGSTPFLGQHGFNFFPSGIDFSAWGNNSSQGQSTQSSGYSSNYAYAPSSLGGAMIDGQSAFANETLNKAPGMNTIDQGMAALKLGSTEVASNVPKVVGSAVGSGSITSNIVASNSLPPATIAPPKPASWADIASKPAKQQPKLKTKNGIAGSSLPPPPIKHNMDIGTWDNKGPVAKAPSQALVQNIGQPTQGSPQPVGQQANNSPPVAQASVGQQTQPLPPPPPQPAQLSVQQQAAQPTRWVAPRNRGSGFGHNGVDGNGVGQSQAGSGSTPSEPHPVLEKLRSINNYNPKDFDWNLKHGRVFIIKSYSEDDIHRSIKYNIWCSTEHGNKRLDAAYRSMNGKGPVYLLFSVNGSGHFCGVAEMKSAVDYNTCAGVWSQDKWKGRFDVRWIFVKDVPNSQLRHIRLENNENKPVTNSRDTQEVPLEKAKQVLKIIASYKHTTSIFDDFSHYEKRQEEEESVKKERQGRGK
The conditions noted are these: HTRF, 1 mM compound; cited from earlier work. A general note: Time-resolved FRET reads energy transfer from a long-lived donor to a nearby acceptor.

On to `CNc1ncnc2[nH]cnc12` [m^6-Adenine], for which the “Residual signal at 1 mM concentration” value is 75 (Ref. ^13) %.
